Target: T1, OR7D4 RT (Homo sapiens, UniProt Q8NG98)
T1 construct: expressed in transfected cells; host or cells: Hana3A (HEK293T-derived)
T1 sequence (Q8NG98 1-312): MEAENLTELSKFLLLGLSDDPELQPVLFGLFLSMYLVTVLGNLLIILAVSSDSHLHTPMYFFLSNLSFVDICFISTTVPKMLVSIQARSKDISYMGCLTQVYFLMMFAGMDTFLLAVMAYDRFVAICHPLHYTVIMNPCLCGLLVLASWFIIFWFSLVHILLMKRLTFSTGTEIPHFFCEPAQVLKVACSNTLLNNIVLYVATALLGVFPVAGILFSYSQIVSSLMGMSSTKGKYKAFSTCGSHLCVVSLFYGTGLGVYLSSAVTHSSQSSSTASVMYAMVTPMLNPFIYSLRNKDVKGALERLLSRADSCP
Assay: Luciferase assay of odorant receptor activation in Hana3A cells, OR7D4 RT
Assay type: cell-based
Set-up: dose or concentration left out as unconfirmed
Conditions: for response of OR7D4 RT (normalized luciferase), ligand specificity panel: panel of 66 odors and 2 solvents at or 1,130,000 dilution
Excerpt: Heterologous expression of human odorant receptors. 423 human odorant receptors including 337 predicted functional receptors were cloned. Odorant receptors that contained the first 20 amino acid of human rhodopsin (see, e.g., Krautwurst, D., et al., Cell 95, 917-926 (1998); herein incorporated by reference in its entirety) in pCl (Promega) were expressed in the Hana3A cell line along with a short form of mRTP1, RTP1S, (M37 to the C-terminal end), which enhanced functional expression of the odorant receptors. For immunocytochemistry, cells were fixed, permeabilized and incubated with monoclonal anti-rhodopsin antibody, 4D2 (see, e.g., Laird, D. W., et al., Invest Opthalmol Vis Sci 29.419428 (1988); herein incorporated by reference in its entirety), followed by Cy3-conjugated donkey anti-mouse IgG (Jackson Immunologicals). For FACS analysis, PE-conjugated donkey anti-mouse IgG (Jackson Immunologicals) was used. Western blot analysis was performed according to Mini-Protean 2 Cell (Bio-Rad) protocol. ECL (Amersham) was used for detecting proteins on membranes. After the initial exposure, the membrane was incubated with stripping buffer (25 mM Glycine-HCl [pH2], 1% SDS, 25 mM Glycine, 0.036N HCl, 1% SDS) and incubated with rabbit anti-GFP (Invitrogen). Luciferase assays were performed as described (see, e.g., Saito, H., et al., Cell 119:679-691 (2004); incorporated herein by reference in its entirety). […]
Luciferase assay and data analysis. […] Luminescence was measured using Wallac Victor 1420 (Perkin-Elmer). Normalized luciferase activity was calculated by the formula [luc(N)-luc(lowest)]/luc(highest)/RL (N) where luc(N)=luminescence of luciferase of a certain well; luc(lowest)=lowest luminescence of luciferase of a plate or a set of plates; luc(highest)=highest luminescence of luciferase of a plate or a set of plates; RL(N)=luminescence of Renilla luciferase of a certain well. Data was analyzed with Microsoft Excel and GraphPad Prism 4.

SMILES	response of OR7D4 RT (normalized luciferase), ligand specificity panel	response of OR7D4 in screen of human odorant receptor panel (Hana3A cells, 337 human odorant receptors, stimulated with androstenone)
C[C@@]12C=CC[C@H]1[C@@H]1CCC3=CC(=O)CC[C@]3(C)[C@H]1CC2 [androstadienone, androsta-4,16-dien-3-one]	responded selectively	–
C[C@]12CCC(=O)C[C@@H]1CC[C@@H]1[C@@H]2CC[C@]2(C)C=CC[C@@H]12 [androstenone, 5α-androst-16-en-3-one]	responded selectively	robust responses

From patent US8298781B2, “Compositions and methods for characterizing and regulating olfactory sensation” (Duke University, priority 2007, dated 2012)
